In publication PMC5743200 (Journal of medicinal chemistry, 2017):
“Also recorded” adds a separate entry of the source.

Experiments:
[1] = test system: HK853 D411N; assay: Thermal shift assay; conditions: D411N alone Tm 67 °C; inhibitor 1 mM; no significant change
[2] = target: HSP90α (Homo sapiens, UniProt P07900); assay: HSP90 inhibition assay, fluorescence polarization Hsp90α kit; assay type: binding
[3] = test system: WT HK853; assay: Thermal shift assay; conditions: WT HK853 alone Tm = 70 °C; inhibitor 1 mM
[4] = target: HK853 (Thermotoga maritima, UniProt Q9WZV7); assay: Inhibition of HK853 activity, BODIPY-ATPγS competition, in-gel fluorescence; assay type: biochemical; conditions: for IC50 values (μM) (95% confidence interval), n = 2: HK853 inhibitory activity, value (95% confidence interval)

For `CCCN(CCC)c1[nH]cnc2ncnc1-2` [Compound 1, 6-N,N-dipropyl adenine], the “change in the Tm value of HK853 D411N” value [1] was no more than 2 °C.

For `c1ccc(CCNc2ncnc3[nH]cnc23)cc1` [Compound 3, 6-N-phenylethyladenine], the IC50 [2] was no more than 1250 µM.

`CC1CC(Nc2ncnc3nc[nH]c23)CC(C)(C)C1` (stereo not drawn) [Compound 4, 6-N,N-(3,3,5-trimethylcyclohexyl) adenine] gave an IC50 [2] of no more than 1250 µM.

`Nc1ncnc2c1ncn2[C@@H]1O[C@H](COP(=O)(O)OP(=O)(O)O)[C@@H](O)[C@H]1O` [Compound 6, ADP, reference compound] was tested, and the “Tm of WT HK853 in the presence of compound” value [3] was 80 °C and the “change in the Tm value of HK853 D411N” value [1] was no more than 2 °C.

In the case of `OC[C@H]1O[C@@H](n2cnc3c(NCCc4ccccc4)ncnc32)[C@H](O)[C@@H]1O` [Compound 10, 6-N-phenylethyladenosine], the “HK853 inhibition, result in words” value [4] is reported as “negligible activity” and the fold decreased potency ([4]; HK853, riboside 10 versus lead 3) is reported as greater than 20 fold.

With `Nc1nc(N)c2nc[nH]c2n1` [Compound 13, 2-aminoadenine] the “HK853 inhibition, result in words” value [4] was “negligible activity”.

For `Nc1nc(N)c2ncn([C@@H]3O[C@H](CO)[C@@H](O)[C@H]3O)c2n1` [Compound 14, aminoadenosine], the “HK853 inhibition, result in words” value [4] was “negligible activity”.

`Nc1nc(Cl)c2ncn([C@@H]3O[C@H](CO)[C@@H](O)[C@H]3O)c2n1` [Compound 20, 2-amino,6-chloropurine ribose] was tested, and the “HK853 inhibition, result in words” value [4] was “negligible activity”.

`Nc1nc2ncnc-2c[nH]1` [Compound 21, 2-aminopurine] was tested, and the “HK853 inhibition, result in words” value [4] was “low affinity; also recorded: negligible activity”.

In the case of `c1ccc(Nc2ncnc3[nH]cnc23)cc1` [Compound 22, 6-anilinopurine], the “fold superior potency compared to 3” value ([4]; HK853) is reported as roughly 20 fold and the “fold superior potency compared to 9” value ([4]; HK853) is reported as roughly 60 fold.

For `OC[C@H]1O[C@@H](n2cnc3c(Nc4ccccc4)ncnc32)[C@H](O)[C@@H]1O` [Compound 23, 6-anilinopurine ribose], the “HK853 inhibition, result in words” value [4] was “failed to inhibit” and the “IC50 values (μM) (95% confidence interval), n = 2” value [4] was “No Inhibition”.

In the case of `Cn1cnc2ncnc(N)c21` [Compound 26, 7-N-methyladenine], the “HK853 inhibition, result in words” value [4] is reported as “failed to show any activity” and the “IC50 values (μM) (95% confidence interval), n = 2” value [4] is reported as “No Inhibition”.

With `Cn1cnc2nc(Cl)nc(N)c21` [Compound 28, 2-chloro,7-N-methyladenine] the “HK853 inhibition, result in words” value [4] was “inactive” and the “IC50 values (μM) (95% confidence interval), n = 2” value [4] was “No Inhibition”.

`Nc1ncnc2[nH]nnc12` [Compound 30, 8-azadenine] was tested, and the “HK853 inhibition, result in words” value [4] was “minimal activity”.

For `Nc1nc2[nH]cnc2c(=O)[nH]1` [Guanine, reference compound], the “HK853 inhibition, result in words” value [4] was “neither guanine or guanosine inhibited HK853”.

With `Nc1nc2c(ncn2[C@@H]2O[C@H](CO)[C@@H](O)[C@H]2O)c(=O)[nH]1` [Guanosine, reference compound] the “HK853 inhibition, result in words” value [4] was “neither guanine or guanosine inhibited HK853” and the “IC50 values (μM) (95% confidence interval), n = 2” value [4] was “No Inhibition”.

In the case of `O=c1[nH]cnc2c1ncn2[C@@H]1O[C@H](CO)[C@@H](O)[C@H]1O` [Inosine, reference compound], the “IC50 values (μM) (95% confidence interval), n = 2” value [4] is reported as “No Inhibition”.
